# Calls of active or inactive are those of the source. No cut-off for these calls is given here.
# Experiments:
# [1] = Induction of MDR1 gene expression in human HeLa cells by qRT-PCR analysis; assay type: functional
# HeLa [2] = experiment: Cytotoxicity against human HeLa cells assessed as reduction in cell viability measured after 48 hrs by CCK-8 assay; assay type: functional
# HeLa [3] = experiment: Induction of morphological change in human HeLa cells assessed as cell shrinkage measured after 48 hrs by CCK-8 assay; assay type: functional, cell-based
# HeLa [4] = experiment: Induction of morphological change in human HeLa cells assessed as reduction in size measured after 48 hrs by CCK-8 assay; assay type: functional, cell-based
# HeLa [5] = experiment: Antimigratory activity against human HeLa cells at 0.22 uM measured upto 48 hrs by electron microscope based Wound healing assay relative to control; assay type: functional; conditions: time hrs <=48
# HeLa [6] = experiment: Antitumor activity against human HeLa cells xenografted in BALB/c nude mouse assessed as tumor growth inhibition at 1 mg/kg, ip administered every 2 days for 18 days by firefly luciferase based bioluminescence assay; assay type: functional, organism-based; conditions: time 18.0 day
# [7] = Toxicity in BALB/c nude mouse xenografted with human HeLa cells assessed as inflammation in myocardial tissue at 1 mg/kg, ip administered every 2 days for 18 days by H and E staining; assay type: organism-based, Myocardium/plasma; conditions: in vivo, 432 h, time 18 day
# [8] = Toxicity in BALB/c nude mouse xenografted with human HeLa cells assessed as induction of convulsions at 1 mg/kg, ip administered every 2 days for 18 days; assay type: organism-based; conditions: in vivo, 432 h, time 18 day
# [9] = Toxicity in BALB/c nude mouse xenografted with human HeLa cells assessed as induction of breathing difficulties at 1 mg/kg, ip administered every 2 days for 18 days; assay type: organism-based; conditions: in vivo, 432 h, time 18 day
# [10] = Toxicity in BALB/c nude mouse xenografted with human HeLa cells assessed as induction of fainting at 1 mg/kg, ip administered every 2 days for 18 days; assay type: organism-based; conditions: in vivo, 432 h, time 18 day
# [11] = Toxicity in BALB/c nude mouse xenografted with human HeLa cells assessed as induction of incontinence at 1 mg/kg, ip administered every 2 days for 18 days; assay type: organism-based; conditions: in vivo, 432 h, time 18 day
# [12] = Toxicity in BALB/c nude mouse xenografted with human HeLa cells assessed as change in body weight at 1 mg/kg, ip administered every 2 days for 18 days; assay type: organism-based; conditions: in vivo, 432 h, time 18 day
# HeLa [13] = experiment: Cytotoxicity against human HeLa cells assessed as potentiation of doxorubicin induced cell survival measured after 72 hrs by CCK-8 assay; assay type: functional
# [14] = Decrease in MDR1 gene expression in human HeLa cells by qRT-PCR analysis; assay type: functional; conditions: dose 0.017 mol/L; time 48 hrs
# HeLa [15] = experiment: Inhibition of hypoxia-inducible factor 1 alpha in DOX induced human HeLa cells assessed as downregulation of protein at 0.017 mmol/L after 48 hrs by Western blotting analysis; assay type: functional
# Mus musculus [16] = experiment: Effect on DOX induced tissue damage in BALB/c nude mouse xenografted with human HeLa cells assessed as spleen enlargement at 80 mg/kg, ig administered every 2 days for 18 days by H and E staining; assay type: functional, organism-based
# Mus musculus [17] = experiment: Effect on DOX induced tissue damage in BALB/c nude mouse xenografted with human HeLa cells assessed as appearance of lesions in glomerular tubule at 80 mg/kg, ig for administered every 2 days for 18 days by H and E staining; assay type: functional, organism-based; conditions: Renal glomerulus, time 18.0 day
# Mus musculus [18] = experiment: Effect on DOX induced tissue damage in BALB/c nude mouse xenografted with human HeLa cells assessed as inflammatory cell infiltration in liver at 80 mg/kg, ig administered every 2 days for 18 days by H and E staining; assay type: functional, organism-based; conditions: time 18.0 day
# HeLa [19] = experiment: Induction of morphological change in human HeLa cells assessed as potentiation of doxorubicin induced cell shrinkage measured after 48 hrs in by CCK-8 assay; assay type: functional, cell-based
# HeLa [20] = experiment: Induction of morphological change in human HeLa cells assessed as potentiation of doxorubicin induced reduction in size measured after 48 hrs in presence of doxorubicin by CCK-8 assay; assay type: functional, cell-based
# HeLa [21] = experiment: Antiproliferative activity against human HeLa cells assessed as inhibition of cell proliferation measured after 48 hrs by CCK-8 assay; assay type: functional, cell-based
# HeLa [22] = experiment: Antimigratory activity against human HeLa cells at 0.017 mmol/L measured upto 48 hrs by electron microscope based Wound healing assay relative to control; assay type: functional; conditions: time hrs <=48
# HeLa [23] = experiment: Inhibition of potentiation of doxorubicin induced cell migration in human HeLa cells measured upto 48 hrs by electron microscope based Wound healing assay relative to control; assay type: functional; conditions: time hrs <=48
# HeLa [24] = experiment: Antitumor activity against human HeLa cells xenografted in BALB/c nude mouse assessed as tumor growth inhibition at 80 mg/kg, ig for administered every 2 days for 18 days by firefly luciferase based bioluminescence assay; assay type: functional, organism-based; conditions: time 18.0 day
# HeLa [25] = experiment: Antitumor activity against human HeLa cells xenografted in BALB/c nude mouse assessed as potentiation of doxorubicin induced tumor growth inhibition at 80 mg/kg, ig administered every 2 days for 18 days by firefly luciferase based bioluminescence assay; assay type: functional, organism-based; conditions: time 18.0 day
# [26] = Toxicity in BALB/c nude mouse xenografted with human HeLa cells assessed as potentiation of doxorubicin induced inflammation in myocardial tissue at 80 mg/kg, ig administered every 2 days for 18 days by H and E staining; assay type: organism-based, Myocardium/plasma; conditions: in vivo, po, 432 h, time 18 day
# HeLa [27] = experiment: Downregulation of Bcl-2 protein expression in human HeLa cells after 48 hrs by western blotting analysis; assay type: functional, cell-based
# HeLa [28] = experiment: Downregulation of MMP-2 protein expression in human HeLa cells after 48 hrs by western blotting analysis; assay type: functional, cell-based
# HeLa [29] = experiment: Downregulation of MMP-9 protein expression in human HeLa cells after 48 hrs by western blotting analysis; assay type: functional, cell-based
# HeLa [30] = experiment: Downregulation of PI3K protein expression in human HeLa cells after 48 hrs by western blotting analysis; assay type: functional, cell-based
# HeLa [31] = experiment: Downregulation of AKT protein expression in human HeLa cells after 48 hrs by western blotting analysis; assay type: functional, cell-based
# HeLa [32] = experiment: Upregulation of BAX protein expression in human HeLa cells after 48 hrs by western blotting analysis; assay type: functional, cell-based
# HeLa [33] = experiment: Downregulation of doxorubicin induced Bcl-2 protein expression in human HeLa cells after 48 hrs by western blotting analysis; assay type: functional, cell-based
# HeLa [34] = experiment: Downregulation of doxorubicin induced MMP-2 protein expression in human HeLa cells after 48 hrs by western blotting analysis; assay type: functional, cell-based
# HeLa [35] = experiment: Downregulation of doxorubicin induced MMP-9 protein expression in human HeLa cells after 48 hrs by western blotting analysis; assay type: functional, cell-based
# HeLa [36] = experiment: Downregulation of doxorubicin induced PI3K protein expression in human HeLa cells after 48 hrs by western blotting analysis; assay type: functional, cell-based
# HeLa [37] = experiment: Downregulation of doxorubicin induced AKT protein expression in human HeLa cells after 48 hrs by western blotting analysis; assay type: functional, cell-based
# HeLa [38] = experiment: Upregulation of doxorubicin induced BAX protein expression in human HeLa cells after 48 hrs by western blotting analysis; assay type: functional, cell-based
# [39] = Decrease in MDR1 gene expression in DOX induced human HeLa cells by RT-PCR analysis; assay type: functional
# [40] = Toxicity in BALB/c nude mouse xenografted with human HeLa cells assessed as induction of convulsions at 80 mg/kg, ig administered every 2 days for 18 days; assay type: organism-based; conditions: in vivo, po, 432 h, time 18 day
# [41] = Toxicity in BALB/c nude mouse xenografted with human HeLa cells assessed as induction of breathing difficulties at 80 mg/kg, ig administered every 2 days for 18 days; assay type: organism-based; conditions: in vivo, po, 432 h, time 18 day
# [42] = Toxicity in BALB/c nude mouse xenografted with human HeLa cells assessed as induction of fainting at 80 mg/kg, ig administered every 2 days for 18 days; assay type: organism-based; conditions: in vivo, po, 432 h, time 18 day
# [43] = Toxicity in BALB/c nude mouse xenografted with human HeLa cells assessed as induction of incontinence at 80 mg/kg, ig administered every 2 days for 18 days; assay type: organism-based; conditions: in vivo, po, 432 h, time 18 day
# [44] = Toxicity in DOX induced BALB/c nude mouse xenografted with human HeLa cells assessed as induction of convulsions at 80 mg/kg, ig administered every 2 days for 18 days; assay type: organism-based; conditions: in vivo, po, 432 h, time 18 day
# [45] = Toxicity in DOX induced BALB/c nude mouse xenografted with human HeLa cells assessed as induction of breathing difficulties at 80 mg/kg, ig administered every 2 days for 18 days; assay type: organism-based; conditions: in vivo, po, 432 h, time 18 day
# [46] = Toxicity in DOX induced BALB/c nude mouse xenografted with human HeLa cells assessed as induction of fainting at 80 mg/kg, ig administered every 2 days for 18 days; assay type: organism-based; conditions: in vivo, po, 432 h, time 18 day
# [47] = Toxicity in DOX induced BALB/c nude mouse xenografted with human HeLa cells assessed as induction of incontinence at 80 mg/kg, ig administered every 2 days for 18 days; assay type: organism-based; conditions: in vivo, po, 432 h, time 18 day
# [48] = Toxicity in BALB/c nude mouse xenografted with human HeLa cells assessed as change in body weight at 80 mg/kg, ig administered every 2 days for 18 days; assay type: organism-based; conditions: in vivo, po, 432 h, time 18 day
# [49] = Toxicity in DOX induced BALB/c nude mouse xenografted with human HeLa cells assessed as change in body weight at 80 mg/kg, ig administered every 2 days for 18 days; assay type: organism-based; conditions: in vivo, po, 432 h, time 18 day
# HeLa [50] = experiment: Antitumor activity against DOX induced human HeLa cells xenografted in BALB/c nude mouse assessed as induction of apoptosis by measuring increase in TUNEL positive nuclei at 80 mg/kg, ig administered every 2 days for 18 days by TUNEL staining based assay; assay type: functional, organism-based; conditions: time 18.0 day
structure (smiles),measurement,setting,value
COc1cccc2c1C(=O)c1c(O)c3c(c(O)c1C2=O)C[C@@](O)(C(=O)CO)C[C@@H]3O[C@H]1C[C@H](N)[C@H](O)[C@H](C)O1 [DOXORUBICIN],Activity,[1],8.69
same,Activity,HeLa [2],2.67 µM
same,Activity,HeLa [3],Active
same,Activity,HeLa [4],Active
same,Activity,HeLa [5],57.14%
same,Activity,HeLa [6],inactive
same,Activity,[7],Toxic
same,Activity,[8],Non-Toxic
same,Activity,[9],Non-Toxic
same,Activity,[10],Non-Toxic
same,Activity,[11],Non-Toxic
same,Activity,[12],Non-Toxic
OC[C@H]1O[C@@H](OCCc2ccc(O)cc2)[C@H](O)[C@@H](O)[C@@H]1O [SALIDROSIDE],Activity,HeLa [13],>85%
same,Activity,[14],1.65
same,Activity,HeLa [2],0.183 µM
same,Activity,HeLa [15],Active
same,Activity,Mus musculus [16],inactive
same,Activity,Mus musculus [17],inactive
same,Activity,Mus musculus [18],inactive
same,Activity,HeLa [3],Active
same,Activity,HeLa [4],Active
same,Activity,HeLa [19],Active
same,Activity,HeLa [20],Active
same,IC50,HeLa [21],10.5 µM
same,Activity,HeLa [22],56.34%
same,inhibition (INH),HeLa [23],18.95%
same,Activity,HeLa [24],Active
same,Activity,HeLa [25],Active
same,Activity,[26],Non-Toxic
same,Activity,HeLa [27],Active
same,Activity,HeLa [28],Active
same,Activity,HeLa [29],Active
same,Activity,HeLa [30],Active
same,Activity,HeLa [31],Active
same,Activity,HeLa [32],Active
same,Activity,HeLa [33],Active
same,Activity,HeLa [34],Active
same,Activity,HeLa [35],Active
same,Activity,HeLa [36],Active
same,Activity,HeLa [37],Active
same,Activity,HeLa [38],Active
same,Activity,[39],2.76
same,Activity,[40],Non-Toxic
same,Activity,[41],Non-Toxic
same,Activity,[42],Non-Toxic
same,Activity,[43],Non-Toxic
same,Activity,[44],Non-Toxic
same,Activity,[45],Non-Toxic
same,Activity,[46],Non-Toxic
same,Activity,[47],Non-Toxic
same,Activity,[48],Non-Toxic
same,Activity,[49],Non-Toxic
same,Activity,HeLa [50],Active

# — ChEMBL document CHEMBL5036362, “Salidroside Promotes Sensitization to Doxorubicin in Human Cancer Cells by Affecting the PI3K/Akt/HIF Signal Pathway and Inhibiting the Expression of Tumor-Resistance-Related Proteins” (J Nat Prod, 2022)
